Experimental data: patent US6177422A (Warner-Lambert Company, priority 1998, dated 2001)

Target: T1, human recombinant dopamine D4.2 receptor (Homo sapiens, UniProt P21917, DEL265-296)
T1 construct: expressed in transfected cells
T1 sequence (P21917 with tags, fused parts or gaps DEL265-296): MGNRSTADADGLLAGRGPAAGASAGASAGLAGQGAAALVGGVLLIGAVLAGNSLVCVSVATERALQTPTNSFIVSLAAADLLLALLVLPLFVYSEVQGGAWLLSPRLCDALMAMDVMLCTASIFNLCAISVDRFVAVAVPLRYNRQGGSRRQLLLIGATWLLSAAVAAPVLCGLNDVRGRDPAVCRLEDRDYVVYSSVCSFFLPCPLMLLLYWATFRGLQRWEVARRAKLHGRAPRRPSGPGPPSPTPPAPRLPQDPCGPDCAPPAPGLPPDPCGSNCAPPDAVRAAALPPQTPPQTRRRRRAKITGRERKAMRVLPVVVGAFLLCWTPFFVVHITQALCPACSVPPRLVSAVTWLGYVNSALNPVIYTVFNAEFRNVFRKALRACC
Experiment: [3H]spiperone receptor binding assay, human dopamine D4.2, CHO K1 cell membranes

Compound | Ki [nM]
Cc1ccc(C2CCN(Cc3ccc4c(c3)NC(=O)CO4)CC2)cc1 [Example 16, 6-(4-p-Tolyl-piperidin-1-ylmethyl)-4H-benzo[1,4]oxazin-3-one] | 2.84
O=C1COc2ccc(CN3CCN(c4ccc(C(F)(F)F)cc4)CC3)cc2N1 [Example 31, 6-[4-(4-Trifluoromethyl-phenyl)-piperazin-1-ylmethyl]-4H-benzo[1,4]oxazin-3-one] | 173
